Experimental data published in patent US6946297B2, “System for stabilizing samples” (priority 1999, dated 2005).
Several values for one entry are separate records, joined by “and”; a condition that tells them apart may be missing. Equal entries are not always repeated.

Legend:
Type in all cases: cell-based
Enterococcus faecalis = assay: Survival of organisms in inoculated urine with preservative components, 24 hours at room temperature; design: key to Survival value enfa: 24 h count / control count; 1 = no change, 0.1 = 1-log decrease; conditions: for Concentration with cidal activity against Enterococcus faecalis: component alone
Method: (§1) Antimicrobial activity for each active ingredient in the Chemistat I formulations was first determined for representative organisms listed in Table I. A culture for each organism of interest on blood agar was incubated at 36° C. overnight. About two to three colonies of the organism were transferred via sterile swab from the blood agar culture into a 5 ml Mueller-Hinton broth culture tube, which was then incubated on a rotator for about two to three hours at 36° C. Using a spectrophotometer set at a wavelength of 630 nm, the turbidity of broth culture was adjusted by the addition of Mueller-Hinton broth to an optical density equivalent to approximately 1×10^8 colony forming units (cfu)/ml to form an inoculum solution. An aliquot of the inoculum solution was plated onto blood agar to determine the actual control organism count. For each component listed in Table II, the component was added to filter-sterilized pooled normal urine at the concentration given in Table II to form a test sample. The test sample was then inoculated with an aliquot of the inoculum solution providing a final organism count of approximately 1×10^6 cfu/ml of test sample. Immediately after thorough mixing, an aliquot of the test sample was removed and serially diluted in PBS, and serial dilutions were plated onto blood agar to determine the Time Zero organism count. The inoculated plates were incubated at 36° C., and organism counts were recorded after 18-24 hours. After incubating the test sample for 24 hours at room temperature, an aliquot of the test sample was again removed, serially diluted in PBS and plated onto blood agar. After incubating for 18-24 hours at 36° C., organism counts were obtained. The organism count obtained after 24 hours incubation at room temperature was divided by the control organism count to provide the survival value of each organism as recorded in Table II. With respect to changes in microbial count, a survival value of 1 represents no change; a survival value of 0.1 indicates a 1-log decrease; a survival value of 10 indicates a 1-log increase; and a survival value of 0.000 represents a decrease of greater than or equal to 3-logs. In comparison, the lower the survival value, the greater the component's capacity for controlling organism growth.

Escherichia coli = assay: as above; design: key to Survival value esco: 24 h count / control count; 1 = no change, 0.1 = 1-log decrease; conditions: for Concentration with cidal activity against Escherichia coli: component alone
Method: as §1

Pseudomonas aeruginosa = assay: as above; conditions: for Concentration with cidal activity against Pseudomonas aeruginosa: component alone
Method: as §1

Enterobacter aerogenes = assay: as above; design: key to Survival value enae: 24 h count / control count; 1 = no change, 0.1 = 1-log decrease; conditions: for Concentration with cidal activity against Enterobacter aerogenes: component alone
Method: as §1

[1] = test system: microorganisms of interest; assay: Antimicrobial (cidal) activity against the organisms of interest taken together; conditions: component alone
Method: as §1, with “With respect to changes in microbial count, a survival value of 1 represents no change; a survival value of 0.1 indicates a 1-log decrease; a survival value of 10 indicates a 1-log increase; and a survival value of 0.000 represents a decrease of greater than or equal to 3-logs. In comparison, the lower the survival value, the greater the component's capacity for controlling organism growth.” left out

Candida albicans = assay: Survival of organisms in inoculated urine with preservative components, 24 hours at room temperature; design: key to Survival value caal: 24 h count / control count; 1 = no change, 0.1 = 1-log decrease; conditions: for Concentration with cidal activity against Candida albicans: component alone
Method: as §1

Klebsiella pneumoniae = assay: as above
Method: as §1

Proteus vulgaris = assay: as above
Method: as §1

[2] = single component at 0.005 mg/ml
[3] = single component at 0.0075 mg/ml

With `OB(O)O` [Boric Acid, boric acid, reference compound] the “Antimicrobial action against Enterococcus faecalis, in words” value (Enterococcus faecalis; concentrations as in label) was “ineffective”, the Survival value enfa (Enterococcus faecalis; single component at 5 mg/ml) was 2.647 and the “Antimicrobial action against Escherichia coli, in words” value (Escherichia coli; concentrations as in label) was “ineffective”. The Survival value esco (Escherichia coli; single component at 5 mg/ml) was 0.770, the “Antimicrobial action against Pseudomonas aeruginosa, in words” value (Pseudomonas aeruginosa; concentrations as in label) was “ineffective” and the Survival value psae (Pseudomonas aeruginosa; single component at 5 mg/ml) was 1.157. The “Antimicrobial action against Enterobacter aerogenes, in words” value (Enterobacter aerogenes; concentrations as in label) was “ineffective” and the Survival value enae (Enterobacter aerogenes; single component at 5 mg/ml) was 1.061.

In the case of `[H]/N=C(\N/C(=N/[H])NCCCCCCNC(=N)NC(=N)Nc1ccc(Cl)cc1)Nc1ccc(Cl)cc1` [Chlorhexidine, chlorhexidine, reference compound], the “Concentration with cidal activity against Enterococcus faecalis” value (Enterococcus faecalis) is reported as 0.05 to 0.8 mg/mL, the Survival value enfa (Enterococcus faecalis; [2]) is reported as 1.115 and the Survival value enfa (Enterococcus faecalis; [3]) is reported as 0.598. The Survival value enfa (Enterococcus faecalis; single component at 0.01 mg/ml) was 0.520, the Survival value enfa (Enterococcus faecalis; single component at 0.02 mg/ml) was 0.179 and 0.141 and the Survival value enfa (Enterococcus faecalis; single component at 0.05 mg/ml) was 0.000. The Survival value enfa (Enterococcus faecalis; single component at 0.1 mg/ml) was 0.561, the Survival value enfa (Enterococcus faecalis; single component at 0.8 mg/ml) was 0.000 and the “Concentration with cidal activity against Escherichia coli” value (Escherichia coli) was 0.0075 mg/mL. It also gave a Survival value esco (Escherichia coli; [2]) of 0.003, a Survival value esco (Escherichia coli; [3]) of 0.000 and a Survival value esco (Escherichia coli; single component at 0.01 mg/ml) of 0.000. The Survival value esco (Escherichia coli; single component at 0.02 mg/ml) was 0.000, the Survival value esco (Escherichia coli; single component at 0.05 mg/ml) was 0.000 and the Survival value esco (Escherichia coli; single component at 0.1 mg/ml) was 0.000. The Survival value esco (Escherichia coli; single component at 0.8 mg/ml) was 0.000, the “Concentration required for cidal action” value [1] was “greater than or equal to 0.01 mg/ml” and the “Concentration with cidal activity against Candida albicans” value (Candida albicans) was 0.0075 mg/mL. For the same molecule, the Survival value caal (Candida albicans; [2]) was 5.308, the Survival value caal (Candida albicans; [3]) was 0.000 and the Survival value caal (Candida albicans; single component at 0.02 mg/ml) was 0.000. The Survival value caal (Candida albicans; single component at 0.05 mg/ml) was 0.000, the Survival value caal (Candida albicans; single component at 0.1 mg/ml) was 0.000 and the Survival value caal (Candida albicans; single component at 0.8 mg/ml) was 0.000. For the same molecule, the “Concentration with cidal activity against Klebsiella pneumoniae” value (Klebsiella pneumoniae; component alone) was 0.02 mg/mL, the Survival value klpn (Klebsiella pneumoniae; single component at 0.02 mg/ml) was 0.000 and the “Concentration with cidal activity against Proteus vulgaris” value (Proteus vulgaris; component alone) was 0.02 mg/mL. For the same molecule, the Survival value prvu (Proteus vulgaris; single component at 0.02 mg/ml) was 0.000, the “Concentration with cidal activity against Pseudomonas aeruginosa” value (Pseudomonas aeruginosa) was greater than 0.05 mg/mL and the Survival value psae (Pseudomonas aeruginosa; [2]) was “tntc”. It also gave a Survival value psae (Pseudomonas aeruginosa; [3]) of 4.049, a Survival value psae (Pseudomonas aeruginosa; single component at 0.01 mg/ml) of 0.277 and a Survival value psae (Pseudomonas aeruginosa; single component at 0.05 mg/ml) of 0.046. For the same molecule, the “Concentration with cidal activity against Enterobacter aerogenes” value (Enterobacter aerogenes) was 0.01 mg/mL, the Survival value enae (Enterobacter aerogenes; [2]) was “tntc” and the Survival value enae (Enterobacter aerogenes; [3]) was 6.098. The Survival value enae (Enterobacter aerogenes; single component at 0.01 mg/ml) was 0.000 and the Survival value enae (Enterobacter aerogenes; single component at 0.05 mg/ml) was 0.000.

In the case of `OCCc1ccccc1` [2-Phenyl ethanol, 2-phenyl ethanol], the “Concentration with cidal activity against Enterococcus faecalis” value (Enterococcus faecalis) is reported as greater than 10 μl/ml, the Survival value enfa (Enterococcus faecalis; single component at 1 μl/ml) is reported as “tntc” and the Survival value enfa (Enterococcus faecalis; single component at 1.8 μl/ml) is reported as “tntc”. For the same molecule, the Survival value enfa (Enterococcus faecalis; single component at 2.5 μl/ml) was “tntc”, the Survival value enfa (Enterococcus faecalis; single component at 4 μl/ml) was “tntc” and the Survival value enfa (Enterococcus faecalis; single component at 5 μl/ml) was “tntc”. For the same molecule, the Survival value enfa (Enterococcus faecalis; single component at 10 μl/ml) was 1.495, the “Concentration with cidal activity against Escherichia coli” value (Escherichia coli) was 4 μl/ml and the Survival value esco (Escherichia coli; single component at 1 μl/ml) was “tntc”. The Survival value esco (Escherichia coli; single component at 1.8 μl/ml) was “tntc”, the Survival value esco (Escherichia coli; single component at 2.5 μl/ml) was 0.245 and the Survival value esco (Escherichia coli; single component at 4 μl/ml) was 0.000. For the same molecule, the Survival value esco (Escherichia coli; single component at 10 μl/ml) was 0.000, the “Concentration required for cidal action” value [1] was “greater than 2.5 μl/ml” and the “Concentration with cidal activity against Candida albicans” value (Candida albicans) was 10 μl/ml. The Survival value caal (Candida albicans; single component at 1.8 μl/ml) was “tntc”, the Survival value caal (Candida albicans; single component at 4 μl/ml) was 1.081 and the Survival value caal (Candida albicans; single component at 10 μl/ml) was 0.000. For the same molecule, the Survival value klpn (Klebsiella pneumoniae; single component at 1.8 μl/ml) was “tntc”, the Survival value prvu (Proteus vulgaris; single component at 1.8 μl/ml) was “tntc” and the “Concentration with cidal activity against Pseudomonas aeruginosa” value (Pseudomonas aeruginosa) was 5 μl/ml. For the same molecule, the Survival value psae (Pseudomonas aeruginosa; single component at 1 μl/ml) was 4.819, the Survival value psae (Pseudomonas aeruginosa; single component at 1.8 μl/ml) was “tntc” and the Survival value psae (Pseudomonas aeruginosa; single component at 2.5 μl/ml) was 0.199. For the same molecule, the Survival value psae (Pseudomonas aeruginosa; single component at 4 μl/ml) was 0.019, the Survival value psae (Pseudomonas aeruginosa; single component at 5 μl/ml) was 0.000 and the Survival value psae (Pseudomonas aeruginosa; single component at 10 μl/ml) was 0.000. The “Concentration with cidal activity against Enterobacter aerogenes” value (Enterobacter aerogenes) was 10 μl/ml, the Survival value enae (Enterobacter aerogenes; single component at 1 μl/ml) was “tntc” and the Survival value enae (Enterobacter aerogenes; single component at 2.5 μl/ml) was 0.092. The Survival value enae (Enterobacter aerogenes; single component at 4 μl/ml) was 0.244, the Survival value enae (Enterobacter aerogenes; single component at 5 μl/ml) was 0.440 and the Survival value enae (Enterobacter aerogenes; single component at 10 μl/ml) was 0.000.
